The data set can be described thus: Chiral stability of Enantiomer 1A at pH 7.4 (ee% by chiral SFC). It is filed as physicochemical. The note with it: buffered solution pH 7.4, 5 μM. How it is done: The chiral stability of Enantiomer 1A (R═OMe) was evaluated by determination of the enantiomeric excess (ee %) after incubation for 24 h and 48 h in a buffered solution at pH 7.4 at 40° C. and 60° C. To assess the influence of the methoxy-substituent of Enantiomer 1A (R═OMe) on the stability against racemization, the chiral stability of Enantiomer 1′A (R═H) was tested under the same conditions.
To this end, 5 μM buffered (pH=7.4) solutions of 1A and 1′A were prepared by mixing 25 μL of a 100 μM solution of 1A or 1′A in DMSO with 475 μL aqueous buffer pH 7.4. Samples were taken 24 h and 48 h after incubation at 40° C. and 60° C. The analytical samples were analyzed by Chiral SFC (MS detection) and the chiral purity was expressed as the enantiomeric excess (ee %=% enantiomer A−% enantiomer B).

Turning to `COc1cc(NC(C(=O)c2c[nH]c3cc(F)ccc23)c2ccc(F)cc2OC)cc(OCCO)c1` (single isomer, unassigned) [Compound 1A, 1-(6-fluoro-1H-indol-3-yl)-2-(4-fluoro-2-methoxyphenyl)-2-((3-(2-hydroxyethoxy)-5-methoxyphenyl)amino)ethanone], the “ee% (enantiomeric excess)” value is, setting by setting: (40° C., 24 h) 100%; (40° C., 48 h) 100%; (60° C., 24 h) 100%; (60° C., 48 h) 96%.

The values are drawn from US10206902B2, “Mono- or di-substituted indoles as dengue viral replication inhibitors” (priority 2014, dated 2019).
